Reference: patent publication US20250206730A1 (AUTOTELIC BIO INC., priority 2022, published 2025)

Key:
ALK5 kinase = target: T1, ALK5 kinase (Homo sapiens, UniProt P36897); assay: LanthaScreen Eu Kinase Binding Assay; conditions: Kinase Tracer 178, Eu-anti-GST Antibody, read-out: IC50 Enzyme
T1 sequence (P36897 34-503): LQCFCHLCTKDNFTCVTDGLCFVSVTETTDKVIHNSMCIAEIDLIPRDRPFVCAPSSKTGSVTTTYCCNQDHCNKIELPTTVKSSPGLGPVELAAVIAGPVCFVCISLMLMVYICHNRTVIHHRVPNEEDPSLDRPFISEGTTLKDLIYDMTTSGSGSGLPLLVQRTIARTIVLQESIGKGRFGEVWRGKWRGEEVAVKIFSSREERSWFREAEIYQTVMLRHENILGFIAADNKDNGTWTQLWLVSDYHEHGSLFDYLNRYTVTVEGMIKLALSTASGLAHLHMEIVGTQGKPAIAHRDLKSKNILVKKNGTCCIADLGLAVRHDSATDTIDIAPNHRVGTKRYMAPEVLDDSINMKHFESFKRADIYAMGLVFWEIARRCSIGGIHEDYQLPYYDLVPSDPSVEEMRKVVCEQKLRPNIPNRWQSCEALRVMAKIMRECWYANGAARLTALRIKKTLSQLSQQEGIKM
Procedure, shortened: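 Tracer-displacement TR-FRET: after 30 min RT compound–kinase preincubation, Eu-labelled anti-GST antibody plus Kinase Tracer 178 were incubated 60 min at RT. Binding was read as a lower 665 nm/615 nm emission ratio (excitation 340 nm).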

TGF-β signaling = assay: Assay for evaluating cellular inhibition of TGF-β signaling, 4T1 (SBE-luc2P) luciferase reporter; assay type: cell-based; conditions: Mus musculus, 4T1, 4T1 (SBE-luc2P) transient pool, 0.2% FBS, 2 h pre-treatment, TGF-β1 2 ng/mL 24 h; read-out: IC50 4T1 Cell
Procedure, shortened: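 Luminescence from SMAD-binding-element luciferase was measured after 24 h of 2 ng/mL TGF-β1 at 37 °C, following 2 h compound pre-treatment. HEK293 stable reporter cells were used at 2.5×10^4/well in 0.5% FBS (~80% confluent); the 4T1 SBE-luc2P transient pool at 6×10^3/well in 0.2% FBS (~60% confluent).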

| SMILES | IC50 (ALK5 kinase) | IC50 (TGF-β signaling) |
| --- | --- | --- |
| Cc1cccc(-c2nc(C(C)C)sc2Oc2ccnc(Nc3cccc(S(N)(=O)=O)c3)c2)n1 [A-287, 3-((4-((2-Isopropyl-4-(6-methylpyridin-2-yl)thiazol-5-yl)oxy)pyridin-2-yl)amino)benzenesulfonamide] | < 0.1 µM | < 0.1 µM |
| CC(C)(O)c1ccc(Nc2cc(Oc3sc(C4CC4)nc3-c3ccccc3)ccn2)cn1 [A-121, 2-(5-((4-((2-Cyclopropyl-4-phenylthiazol-5-yl)oxy)pyridin-2-yl)amino)pyridin-2-yl)propan-2-ol] | < 0.1 µM | > 0.1 µM |
| Cc1nc(-c2ccccc2)c(Oc2ccnc(Nc3cccc(C(C)(C)O)c3)c2)s1 [A-61, 2-(3-((4-((2-Methyl-4-phenylthiazol-5-yl)oxy)pyridin-2-yl)amino)phenyl)propan-2-ol] | < 0.1 µM | < 0.1 µM |
| Cc1cccc(-c2nc(C(F)(F)F)sc2Oc2ccnc(Nc3cccc(C(N)=O)c3)c2)n1 [A-291, 3-((4-((4-(6-Methylpyridin-2-yl)-2-(trifluoromethyl)thiazol-5-yl)oxy)pyridin-2-yl)amino)benzamide] | < 0.1 µM | < 0.1 µM |
| Cc1nc(-c2ccccc2)c(Oc2ccnc(Nc3cccc(S(C)(=O)=O)c3)c2)s1 [A-70, 4-((2-Methyl-4-phenylthiazol-5-yl)oxy)-N-(3-(methylsulfonyl)phenyl)pyridin-2-amine] | < 0.1 µM | < 0.1 µM |
| CC(C)c1nc(-c2ccccc2)c(Oc2ccnc(Nc3cccc(S(N)(=O)=O)c3)c2)s1 [A-218, 3-((4-((2-Isopropyl-4-phenylthiazol-5-yl)oxy)pyridin-2-yl)amino)benzenesulfonamide] | > 0.1 µM | > 0.1 µM |
| Cc1nc(-c2ccccc2)c(Oc2ccnc(Nc3ccnc(C(C)(C)O)c3)c2)s1 [A-59, 2-(4-((4-((2-Methyl-4-phenylthiazol-5-yl)oxy)pyridin-2-yl)amino)pyridin-2-yl)propan-2-ol] | < 0.1 µM | > 0.1 µM |
| O=C(O)c1ccc(Nc2cc(Oc3sc(NC4CC4)nc3-c3ccccc3)ccn2)cc1 [A-49, 4-((4-((2-(Cyclopropylamino)-4-phenylthiazol-5-yl)oxy)pyridin-2-yl)amino)benzoic acid] | < 0.1 µM | > 0.1 µM |
| O=C(O)c1ccc(Nc2cc(Oc3sc(C4CCCCC4)nc3-c3ccccc3)ccn2)nc1 [A-178, 6-((4-((2-cyclohexyl-4-phenylthiazol-5-yl)oxy)pyridin-2-yl)amino)nicotinic acid] | > 0.1 µM | > 0.1 µM |
| Cc1nc(-c2ccccc2)c(Oc2ccnc(Nc3cccc(CCC#N)c3)c2)s1 [A-113, 3-(3-((4-((2-Methyl-4-phenylthiazol-5-yl)oxy)pyridin-2-yl)amino)phenyl)propanenitrile] | < 0.1 µM | < 0.1 µM |
| Cc1cccc(-c2nc(C)sc2Oc2ccnc(Nc3cccc(CC#N)c3)c2)n1 [A-304] | < 0.1 µM | < 0.1 µM |
| CNC(=O)c1ccc(Nc2cc(Oc3sc(C4CC4)nc3-c3ccccc3)ccn2)nc1 [A-133, 6-((4-((2-Cyclopropyl-4-phenylthiazol-5-yl)oxy)pyridin-2-yl)amino)-N-methylnicotinamide] | < 0.1 µM | < 0.1 µM |
| O=C(O)c1cccc(Nc2cc(Oc3sc(Br)nc3-c3ccccc3)ccn2)c1 [A-171, 3-((4-((2-Bromo-4-phenylthiazol-5-yl)oxy)pyridin-2-yl)amino)benzoic acid] | < 0.1 µM | > 0.1 µM |
| NC(=O)c1cccc(Nc2cc(Oc3sc(Br)nc3-c3ccccc3)ccn2)c1 [A-172, 3-((4-((2-Bromo-4-phenylthiazol-5-yl)oxy)pyridin-2-yl)amino)benzamide] | > 0.1 µM | > 0.1 µM |
| CNC(=O)c1ccc(Nc2cc(Oc3sc(N(C)C)nc3-c3cccc(C)n3)ccn2)nc1 [A-286, 6-((4-((2-(Dimethylamino)-4-(6-methylpyridin-2-yl)thiazol-5-yl)oxy)pyridin-2-yl)amino)-N-methylnicotinamide] | < 0.1 µM | < 0.1 µM |
| Cc1nc(-c2ccccc2)c(Oc2ccnc(Nc3cccc(CCc4nn[nH]n4)c3)c2)s1 [A-114, N-(3-(2-(2H-Tetrazol-5-yl)ethyl)phenyl)-4-((2-methyl-4-phenylthiazol-5-yl)oxy)pyridin-2-amine] | < 0.1 µM | < 0.1 µM |
| CN(C)c1nc(-c2ccccc2)c(Oc2ccnc(Nc3cccc(S(N)(=O)=O)c3)c2)s1 [A-154, 3-((4-((2-(Dimethylamino)-4-phenylthiazol-5-yl)oxy)pyridin-2-yl)amino)benzenesulfonamide] | < 0.1 µM | > 0.1 µM |
| CCc1nc(-c2ccccc2)c(Oc2ccnc(Nc3cccc(C(C)(C)O)c3)c2)s1 [A-182, 2-(3-((4-((2-Ethyl-4-phenylthiazol-5-yl)oxy)pyridin-2-yl)amino)phenyl)propan-2-ol] | < 0.1 µM | > 0.1 µM |
| CN(C)c1nc(-c2ccc3ccccc3c2)c(Oc2ccnc(Nc3cccc(S(N)(=O)=O)c3)c2)s1 [A-235, 3-((4-((2-(Dimethylamino)-4-(naphthalen-2-yl)thiazol-5-yl)oxy)pyridin-2-yl)amino)benzenesulfonamide] | > 0.1 µM | > 0.1 µM |

Results, then the compound that gave them:

| IC50 (ALK5 kinase) | IC50 (TGF-β signaling) | SMILES |
| --- | --- | --- |
| < 0.1 µM | < 0.1 µM | CN(C)c1nc(-c2ccccc2)c(Oc2ccnc(Nc3cccc(C(N)=O)c3)c2)s1 [A-155, 3-((4-((2-(Dimethylamino)-4-phenylthiazol-5-yl)oxy)pyridin-2-yl)amino)benzamide] |
| < 0.1 µM | > 0.1 µM | Cc1nc(-c2ccccc2)c(Oc2ccnc(Nc3ccc(C(=O)O)cc3)c2)s1 [A-110, 4-((4-((2-Methyl-4-phenylthiazol-5-yl)oxy)pyridin-2-yl)amino)benzoic acid] |
| < 0.1 µM | > 0.1 µM | Nc1nc(-c2ccccc2)c(Oc2ccnc(Nc3cccc(C(=O)O)c3)c2)s1 [A-40, 3-((4-((2-Amino-4-phenylthiazol-5-yl)oxy)pyridin-2-yl)amino)benzoic acid] |
| < 0.1 µM | > 0.1 µM | CN(C)c1nc(-c2ccccc2)c(Oc2ccnc(Nc3ccnc(C(C)(C)O)c3)c2)s1 [A-158, 2-(4-((4-((2-(Dimethylamino)-4-phenylthiazol-5-yl)oxy)pyridin-2-yl)amino)pyridin-2-yl)propan-2-ol] |
| < 0.1 µM | < 0.1 µM | CNC(=O)c1cccc(Nc2cc(Oc3sc(N(C)C)nc3-c3ccccc3)ccn2)n1 [A-161, 6-((4-((2-(Dimethylamino)-4-phenylthiazol-5-yl)oxy)pyridin-2-yl)amino)-N-methylpicolinamide] |
| < 0.1 µM | < 0.1 µM | CCc1nc(-c2ccccc2)c(Oc2ccnc(Nc3cccc(S(N)(=O)=O)c3)c2)s1 [A-181, 3-((4-((2-Ethyl-4-phenylthiazol-5-yl)oxy)pyridin-2-yl)amino)benzenesulfonamide] |
| > 0.1 µM | > 0.1 µM | CNC(=O)c1ccc(Nc2cc(Oc3sc(C4CCCCC4)nc3-c3ccccc3)ccn2)nc1 [A-180, 6-((4-((2-Cyclohexyl-4-phenylthiazol-5-yl)oxy)pyridin-2-yl)amino)-N-methylnicotinamide] |
| < 0.1 µM | > 0.1 µM | CCc1nc(-c2ccccc2)c(Oc2ccnc(Nc3cccc(C(=O)O)c3)c2)s1 [A-194, 3-((4-((2-Ethyl-4-phenylthiazol-5-yl)oxy)pyridin-2-yl)amino)benzoic acid] |
| < 0.1 µM | < 0.1 µM | Cc1nc(-c2ccccc2)c(Oc2ccnc(Nc3cc(C(N)=O)ccn3)c2)s1 [A-93, 2-((4-((2-Methyl-4-phenylthiazol-5-yl)oxy)pyridin-2-yl)amino)isonicotinamide] |
| > 0.1 µM | > 0.1 µM | CC(C)c1nc(-c2ccccc2)c(Oc2ccnc(Nc3ccc(C(N)=O)cc3)c2)s1 [A-222, 4-((4-((2-Isopropyl-4-phenylthiazol-5-yl)oxy)pyridin-2-yl)amino)benzamide] |
| < 0.1 µM | < 0.1 µM | CC(C)c1nc(-c2ccccc2)c(Oc2ccnc(Nc3ccc(C(=O)O)cn3)c2)s1 [A-232, 6-((4-((2-Isopropyl-4-phenylthiazol-5-yl)oxy)pyridin-2-yl)amino)nicotinic acid] |
| < 0.1 µM | > 0.1 µM | CC(C)c1nc(-c2ccccc2)c(Oc2ccnc(Nc3cccc(C(N)=O)n3)c2)s1 [A-226, 6-((4-((2-Isopropyl-4-phenylthiazol-5-yl)oxy)pyridin-2-yl)amino)picolinamide] |
| < 0.1 µM | > 0.1 µM | CN(C)c1nc(-c2ccccc2)c(Oc2ccnc(Nc3cccc(C(=O)O)c3)c2)s1 [A-167, 3-((4-((2-(Dimethylamino)-4-phenylthiazol-5-yl)oxy)pyridin-2-yl)amino)benzoic acid] |
| < 0.1 µM | < 0.1 µM | CCc1nc(-c2cccc(C)n2)c(Oc2ccnc(Nc3cccc(C(=O)NC)n3)c2)s1 [A-256, 6-((4-((2-Ethyl-4-(6-methylpyridin-2-yl)thiazol-5-yl)oxy)pyridin-2-yl)amino)-N-methylpicolinamide] |
